Earlier results, collected in patent US11246476B2, “Method for visualizing tissue with an ICG dye composition during ablation procedures” (CardioFocus, Inc., priority 2014, dated 2022).

What was measured:
[1] = in vivo
[2] = after injection into the patient's arm (e.g., through an IV)

SMILES: CC1(C)C(/C=C/C=C/C=C/C=C2\N(CCCCS(=O)(=O)[O-])c3ccc4ccccc4c3C2(C)C)=[N+](CCCCS(=O)(=O)[O-])c2ccc3ccccc3c21.[Na+] [ICG, Indocyanine green]
- route of removal from circulation [1]: removed from circulation exclusively by the liver to bile juice
- binding to plasma proteins (plasma proteins): binds tightly to plasma proteins
- time to travel through the bloodstream to the target tissue [2]: less than 1 minute
